Assay results from patent publication US11208412B2 (DAEGU-GYEONGBUK MEDICAL INNOVATION FOUNDATION, priority 2017, dated 2021).

How the values were obtained:
Experiment in all cases: Kinase selectivity, DiscoverX scanMAX Kinase assay panel (% control)
Type in all cases: binding
[1] = target: T1, kinases of the scanMAX Kinase assay panel (Homo sapiens, UniProt P42680); conditions: kinase TEC; 1 uM in DMSO
T1 construct: purchased DiscoverX Co. (contract measurement) scanMAX Kinase assay panel
T1 sequence (P42680 1-631): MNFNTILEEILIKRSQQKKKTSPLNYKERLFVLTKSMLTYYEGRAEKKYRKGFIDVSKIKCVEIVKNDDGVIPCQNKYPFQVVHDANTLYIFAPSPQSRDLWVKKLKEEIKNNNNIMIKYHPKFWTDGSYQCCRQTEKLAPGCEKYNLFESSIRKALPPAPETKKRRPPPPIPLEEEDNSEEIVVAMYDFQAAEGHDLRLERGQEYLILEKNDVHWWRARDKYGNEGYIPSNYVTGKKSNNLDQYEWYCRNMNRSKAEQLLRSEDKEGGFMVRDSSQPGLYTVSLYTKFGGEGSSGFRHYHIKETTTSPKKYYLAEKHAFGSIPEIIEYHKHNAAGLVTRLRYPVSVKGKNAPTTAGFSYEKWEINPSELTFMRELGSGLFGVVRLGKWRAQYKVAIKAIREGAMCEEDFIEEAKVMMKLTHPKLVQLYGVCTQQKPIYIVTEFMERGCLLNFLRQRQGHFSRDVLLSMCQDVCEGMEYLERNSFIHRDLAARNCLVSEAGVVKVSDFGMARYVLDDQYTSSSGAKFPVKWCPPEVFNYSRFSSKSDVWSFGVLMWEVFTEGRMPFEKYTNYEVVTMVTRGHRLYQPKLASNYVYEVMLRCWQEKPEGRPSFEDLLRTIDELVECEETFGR
How it was run: (§1)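 Single-point screen, 1 uM cpd in DMSO. % ctrl = (cpd − pos ctrl)/(neg ctrl − pos ctrl)×100; pos ctrl = 0%, DMSO neg ctrl = 100%. Hit cutoff <35%.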

[2] = target: T2, kinases of the scanMAX Kinase assay panel (Homo sapiens, UniProt P30530); conditions: AXL; 1 uM
T2 construct: purchased DiscoverX Co. (contract measurement) scanMAX Kinase assay panel
T2 sequence (P30530 26-894): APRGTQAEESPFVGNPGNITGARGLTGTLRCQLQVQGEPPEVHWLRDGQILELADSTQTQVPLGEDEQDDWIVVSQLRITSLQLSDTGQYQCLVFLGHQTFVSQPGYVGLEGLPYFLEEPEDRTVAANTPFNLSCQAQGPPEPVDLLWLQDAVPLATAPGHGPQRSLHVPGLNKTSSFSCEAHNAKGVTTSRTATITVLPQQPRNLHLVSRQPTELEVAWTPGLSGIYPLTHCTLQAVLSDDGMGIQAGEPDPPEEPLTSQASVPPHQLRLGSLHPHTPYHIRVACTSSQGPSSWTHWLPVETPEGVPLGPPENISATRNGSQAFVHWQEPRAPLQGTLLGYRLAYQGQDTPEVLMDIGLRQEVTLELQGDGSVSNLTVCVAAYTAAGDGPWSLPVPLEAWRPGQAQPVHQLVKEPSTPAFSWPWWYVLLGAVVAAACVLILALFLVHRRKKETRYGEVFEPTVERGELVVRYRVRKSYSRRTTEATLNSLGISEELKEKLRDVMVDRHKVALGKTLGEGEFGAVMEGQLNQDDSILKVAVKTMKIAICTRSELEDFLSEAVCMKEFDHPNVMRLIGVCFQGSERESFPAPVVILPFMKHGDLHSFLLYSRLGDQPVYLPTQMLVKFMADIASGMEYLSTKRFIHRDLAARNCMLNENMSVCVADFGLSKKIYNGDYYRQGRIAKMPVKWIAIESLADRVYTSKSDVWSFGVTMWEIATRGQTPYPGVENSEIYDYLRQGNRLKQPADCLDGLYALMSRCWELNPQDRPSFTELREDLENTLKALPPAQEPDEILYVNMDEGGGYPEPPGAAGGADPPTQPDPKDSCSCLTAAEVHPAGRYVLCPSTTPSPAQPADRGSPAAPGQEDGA
How it was run: as §1

[3] = target: T3, kinases of the scanMAX Kinase assay panel (Homo sapiens, UniProt P04629); conditions: kinase TRKA; 1 uM in DMSO
T3 construct: purchased DiscoverX Co. (contract measurement) scanMAX Kinase assay panel
T3 sequence (P04629 33-796): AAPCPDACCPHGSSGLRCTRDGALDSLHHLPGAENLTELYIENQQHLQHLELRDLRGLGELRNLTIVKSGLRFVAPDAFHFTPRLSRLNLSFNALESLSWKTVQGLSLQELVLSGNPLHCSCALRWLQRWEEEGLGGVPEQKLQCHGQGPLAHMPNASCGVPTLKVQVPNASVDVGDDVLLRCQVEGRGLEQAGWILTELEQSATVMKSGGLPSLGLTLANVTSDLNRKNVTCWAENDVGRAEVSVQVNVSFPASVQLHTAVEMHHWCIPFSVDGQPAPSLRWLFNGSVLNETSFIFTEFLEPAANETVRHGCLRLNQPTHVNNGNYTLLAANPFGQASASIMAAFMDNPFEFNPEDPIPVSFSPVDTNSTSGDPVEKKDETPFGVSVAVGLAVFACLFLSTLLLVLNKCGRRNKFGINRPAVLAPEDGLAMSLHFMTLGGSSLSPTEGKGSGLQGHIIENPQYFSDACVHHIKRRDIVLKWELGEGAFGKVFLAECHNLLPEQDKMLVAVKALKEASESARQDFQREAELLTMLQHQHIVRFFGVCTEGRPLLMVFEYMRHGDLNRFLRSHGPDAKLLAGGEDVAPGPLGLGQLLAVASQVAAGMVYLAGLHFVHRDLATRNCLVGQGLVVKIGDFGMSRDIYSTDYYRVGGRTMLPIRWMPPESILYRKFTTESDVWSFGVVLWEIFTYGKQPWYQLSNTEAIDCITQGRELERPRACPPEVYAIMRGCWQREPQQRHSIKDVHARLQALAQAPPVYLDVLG
How it was run: as §1

[4] = target: T4, kinases of the scanMAX Kinase assay panel (Homo sapiens, UniProt Q99640); conditions: PKMYT1; 1 uM
T4 construct: purchased DiscoverX Co. (contract measurement) scanMAX Kinase assay panel
T4 sequence (Q99640 1-499): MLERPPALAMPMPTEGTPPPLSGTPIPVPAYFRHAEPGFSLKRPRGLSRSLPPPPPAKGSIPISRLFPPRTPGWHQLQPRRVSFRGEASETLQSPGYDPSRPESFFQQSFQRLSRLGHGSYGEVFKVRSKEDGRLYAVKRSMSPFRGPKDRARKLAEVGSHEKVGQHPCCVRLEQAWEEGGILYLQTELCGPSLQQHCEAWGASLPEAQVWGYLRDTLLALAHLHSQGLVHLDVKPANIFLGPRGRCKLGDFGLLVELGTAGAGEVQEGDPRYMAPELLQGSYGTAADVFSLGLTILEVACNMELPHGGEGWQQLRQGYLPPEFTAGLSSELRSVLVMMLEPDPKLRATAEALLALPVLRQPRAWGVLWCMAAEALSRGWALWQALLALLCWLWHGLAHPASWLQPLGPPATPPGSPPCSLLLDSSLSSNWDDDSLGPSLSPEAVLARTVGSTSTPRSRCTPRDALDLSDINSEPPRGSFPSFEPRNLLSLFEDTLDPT
How it was run: as §1

[5] = target: T5, kinases of the scanMAX Kinase assay panel (Homo sapiens, UniProt Q6DT37); conditions: DMPK2; 1 uM
T5 construct: purchased DiscoverX Co. (contract measurement) scanMAX Kinase assay panel
How it was run: as §1

[6] = target: T6, kinases of the scanMAX Kinase assay panel (Homo sapiens, UniProt P00533, L858R); conditions: EGFR(L858R); 1 uM
T6 construct: purchased DiscoverX Co. (contract measurement) scanMAX Kinase assay panel
T6 sequence (P00533 25-1210 L858R): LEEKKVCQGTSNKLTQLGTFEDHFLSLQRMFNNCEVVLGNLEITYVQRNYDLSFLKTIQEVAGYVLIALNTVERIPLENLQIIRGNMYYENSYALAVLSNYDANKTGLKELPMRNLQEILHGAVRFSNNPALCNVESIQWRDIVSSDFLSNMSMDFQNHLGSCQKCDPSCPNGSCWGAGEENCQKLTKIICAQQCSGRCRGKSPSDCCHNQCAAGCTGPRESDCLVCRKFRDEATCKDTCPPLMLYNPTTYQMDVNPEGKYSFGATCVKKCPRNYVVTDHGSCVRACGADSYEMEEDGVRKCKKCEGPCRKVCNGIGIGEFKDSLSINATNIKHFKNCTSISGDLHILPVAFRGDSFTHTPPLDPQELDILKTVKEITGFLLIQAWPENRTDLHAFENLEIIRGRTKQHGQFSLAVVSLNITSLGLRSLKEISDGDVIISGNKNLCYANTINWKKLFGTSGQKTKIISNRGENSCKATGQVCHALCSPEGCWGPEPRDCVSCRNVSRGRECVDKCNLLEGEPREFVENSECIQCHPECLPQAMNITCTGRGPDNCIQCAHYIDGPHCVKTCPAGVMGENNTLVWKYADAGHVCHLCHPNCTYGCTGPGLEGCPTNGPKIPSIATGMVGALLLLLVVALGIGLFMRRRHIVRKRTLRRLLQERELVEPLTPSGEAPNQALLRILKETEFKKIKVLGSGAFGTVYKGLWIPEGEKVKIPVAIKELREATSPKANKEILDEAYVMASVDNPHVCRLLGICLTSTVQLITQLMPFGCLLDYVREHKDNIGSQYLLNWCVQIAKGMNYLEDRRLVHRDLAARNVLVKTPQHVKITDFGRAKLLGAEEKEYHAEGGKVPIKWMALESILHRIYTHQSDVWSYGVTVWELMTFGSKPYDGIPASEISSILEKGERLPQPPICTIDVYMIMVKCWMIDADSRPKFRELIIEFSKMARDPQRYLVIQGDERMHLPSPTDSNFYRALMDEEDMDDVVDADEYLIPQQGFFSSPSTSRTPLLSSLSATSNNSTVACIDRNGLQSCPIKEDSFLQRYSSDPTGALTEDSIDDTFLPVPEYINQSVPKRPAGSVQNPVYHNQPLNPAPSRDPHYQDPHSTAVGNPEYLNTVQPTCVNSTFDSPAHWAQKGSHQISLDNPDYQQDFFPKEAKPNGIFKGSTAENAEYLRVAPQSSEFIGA
How it was run: as §1

[7] = target: T7, kinases of the scanMAX Kinase assay panel (Homo sapiens, UniProt Q7KZI7); conditions: MARK2; 1 uM
T7 construct: purchased DiscoverX Co. (contract measurement) scanMAX Kinase assay panel
T7 sequence (Q7KZI7 whole entry): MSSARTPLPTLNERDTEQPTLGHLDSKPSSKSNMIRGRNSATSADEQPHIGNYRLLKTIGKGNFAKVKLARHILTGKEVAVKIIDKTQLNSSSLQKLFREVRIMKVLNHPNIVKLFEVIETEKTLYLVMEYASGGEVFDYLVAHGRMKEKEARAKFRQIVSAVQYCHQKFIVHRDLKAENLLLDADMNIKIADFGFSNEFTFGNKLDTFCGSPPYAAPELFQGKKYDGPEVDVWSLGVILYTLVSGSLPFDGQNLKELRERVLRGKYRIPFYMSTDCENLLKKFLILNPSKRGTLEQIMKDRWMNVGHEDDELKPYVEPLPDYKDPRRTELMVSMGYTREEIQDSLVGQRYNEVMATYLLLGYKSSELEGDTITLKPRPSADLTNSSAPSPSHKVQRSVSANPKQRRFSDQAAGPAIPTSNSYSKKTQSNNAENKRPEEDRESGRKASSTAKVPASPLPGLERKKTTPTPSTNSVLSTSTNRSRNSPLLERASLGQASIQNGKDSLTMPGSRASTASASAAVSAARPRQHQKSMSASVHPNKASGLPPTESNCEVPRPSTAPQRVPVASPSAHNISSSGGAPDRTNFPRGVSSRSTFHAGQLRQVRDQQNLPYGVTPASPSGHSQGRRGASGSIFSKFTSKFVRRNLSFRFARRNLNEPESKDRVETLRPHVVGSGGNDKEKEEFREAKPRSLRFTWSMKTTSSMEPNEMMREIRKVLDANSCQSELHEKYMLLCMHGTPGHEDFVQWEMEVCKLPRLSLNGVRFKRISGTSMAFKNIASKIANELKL
How it was run: as §1

[8] = target: T8, kinases of the scanMAX Kinase assay panel (Homo sapiens, UniProt Q9BWU1); conditions: CDK11; 1 uM
T8 construct: purchased DiscoverX Co. (contract measurement) scanMAX Kinase assay panel
T8 sequence (Q9BWU1 whole entry): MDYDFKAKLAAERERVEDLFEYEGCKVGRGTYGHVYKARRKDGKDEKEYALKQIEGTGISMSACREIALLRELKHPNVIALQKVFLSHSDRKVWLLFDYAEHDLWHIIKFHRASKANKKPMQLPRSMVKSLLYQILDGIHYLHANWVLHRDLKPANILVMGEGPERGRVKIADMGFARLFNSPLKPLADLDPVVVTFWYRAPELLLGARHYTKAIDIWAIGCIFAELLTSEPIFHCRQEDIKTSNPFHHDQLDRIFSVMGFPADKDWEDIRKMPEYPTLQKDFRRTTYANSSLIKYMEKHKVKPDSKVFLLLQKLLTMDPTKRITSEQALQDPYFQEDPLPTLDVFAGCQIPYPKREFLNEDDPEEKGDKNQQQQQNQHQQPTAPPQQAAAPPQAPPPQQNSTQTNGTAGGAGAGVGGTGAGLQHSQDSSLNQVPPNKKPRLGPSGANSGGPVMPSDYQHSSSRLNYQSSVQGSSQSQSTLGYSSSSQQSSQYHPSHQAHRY
How it was run: as §1

[9] = target: T9, kinases of the scanMAX Kinase assay panel (Homo sapiens, UniProt Q96RR4); conditions: CAMKK2; 1 uM
T9 construct: purchased DiscoverX Co. (contract measurement) scanMAX Kinase assay panel
T9 sequence (Q96RR4 whole entry): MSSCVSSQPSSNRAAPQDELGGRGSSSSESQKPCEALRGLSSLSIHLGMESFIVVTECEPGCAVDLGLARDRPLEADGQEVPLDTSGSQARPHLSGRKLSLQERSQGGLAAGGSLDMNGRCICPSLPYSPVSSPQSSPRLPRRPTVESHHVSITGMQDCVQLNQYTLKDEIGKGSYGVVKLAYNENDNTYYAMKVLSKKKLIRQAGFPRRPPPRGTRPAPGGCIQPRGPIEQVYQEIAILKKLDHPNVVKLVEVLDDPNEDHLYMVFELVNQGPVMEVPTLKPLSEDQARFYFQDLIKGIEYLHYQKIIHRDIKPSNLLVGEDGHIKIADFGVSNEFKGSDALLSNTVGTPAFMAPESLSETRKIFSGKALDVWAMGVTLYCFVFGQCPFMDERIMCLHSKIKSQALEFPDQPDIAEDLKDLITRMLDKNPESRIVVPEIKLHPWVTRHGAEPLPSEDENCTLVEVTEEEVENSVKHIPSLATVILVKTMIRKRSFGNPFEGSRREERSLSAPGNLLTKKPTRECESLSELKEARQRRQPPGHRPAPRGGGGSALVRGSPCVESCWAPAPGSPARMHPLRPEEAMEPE
How it was run: as §1

| SMILES | remaining binding at 1 µM [1] [%] | remaining binding at 1 µM [2] [%] | remaining binding at 1 µM [3] [%] | remaining binding at 1 µM [4] [%] | remaining binding at 1 µM [5] [%] | remaining binding at 1 µM [6] [%] | remaining binding at 1 µM [7] [%] | remaining binding at 1 µM [8] [%] | remaining binding at 1 µM [9] [%] |
| --- | --- | --- | --- | --- | --- | --- | --- | --- | --- |
| CNc1nc(Nc2ccc(C(=O)N3CCOCC3)cc2OC)nc2[nH]cc(C#N)c12 [Example 1, 2-((2-methoxy-4-(morpholine-4-carbonyl)phenyl)amino)-4-(methylamino)-7H-pyrrolo[2,3-d]pyrimidine-5-carbonitrile] | 100 | 90 | 67 | 99 | 90 | 96 | 100 | 87 | 65 |
| CC1(Nc2nc(Nc3cnn([C@H]4CCN(C5COC5)C[C@@H]4F)c3Cl)nc3[nH]cc(C#N)c23)CC1 [Example 52, 2-((5-chloro-1-((3S,4S)-3-fluoro-1-(oxetane-3-yl)piperidine-4-yl)-1H-pyrazole-4-yl)amino)((1-methylcyclopropyl)amino)-7H-pyrrolo[2,3-d]pyrimidine-5-carbonitrile] | 24 | 0 | 0.5 | 89 | 81 | 41 | 9.5 | 100 | 5.7 |
| CCNc1nc(Nc2ccc(C(=O)N3CCC(N4CCOCC4)CC3)cc2OC)nc2[nH]cc(C(F)(F)F)c12 [Example 104, (4-((4-(ethylamino)-5-(trifluoromethyl)-7H-pyrrolo[2,3-d]pyrimidine-2-yl)amino)-3-methoxyphenyl)(4-morpholinopiperidine-1-yl)methanone] | 86 | 69 | 98 | 100 | 100 | 89 | 81 | 96 | 20 |
